Experimental data published in patent US20220098191A1 (priority 2019, published 2022).
“And” between values parts separate entries of the source, which are not always exact repeats. Identical values can stand only once.

Legend:
LIM1215 (Gastric) = experiment: MTT in vitro cytotoxicity, 72 hour incubation; assay type: cell-based; conditions: MTT assay, LIM1215 cells
Protocol: (§1) The in vitro cytotoxicity of a selection of compounds was determined in a panel of cell lines using the standard MTT assay for a 72 hour incubation period (Table 1).
(§2) Tumor cell lines were maintained in RPMI1640 medium supplemented with 10% heat-inactivated fetal bovine serum, 2 mM L-glutamine and 1 mM sodium pyruvate. 1800 cells per well were seeded in a volume of 180 μl in a 96-well flat bottom polystyrene plate. The cells were allowed to adhere overnight at 37° C. in a CO2 incubator. Ligands were initially formulated in DMSO, and stocks stored at −80° C. They were then further formulated at lox concentration in RPMI1640 medium. 20 μl of diluted samples were added into each treatment well. On each plate, blank wells with no cells, and untreated wells containing cells, were included. Plates were then cultured at 37° C. in a CO2 incubator for 72 hrs. Cytotoxicity was evaluated using a tetrazolium salt-based assay, the MTT assay. After 72 hours, the supernatant was removed from each well and 200 μl of a sterile filtered 500 μg/ml MTT solution in water added to each well. The plates were then incubated at 37° C. in a CO2 incubator for 4 hrs. The supernatant was then removed and the formazan crystals formed solubilized by adding 150 μl of DMSO to each well. The plate was then read on a plate reader at 540 nm, and percentage cell survival calculated as follows: ((mean absorbance treated wells at concentration×−mean absorbance blank wells)÷(mean absorbance untreated wells at concentration×−mean absorbance blank wells))×100. Data were plotted as concentration in nM vs. % cell survival in Microsoft Excel, and IC50 values (concentration where cell survival is reduced by a half) were determined from the graph.

SW620 (Gastric) = experiment: MTT in vitro cytotoxicity, 72 hour incubation; assay type: cell-based; conditions: Homo sapiens, SW-620, MTT assay, SW620 cells
Protocol: as §1, §2

SW48 (Gastric) = experiment: MTT in vitro cytotoxicity, 72 hour incubation; assay type: cell-based; conditions: Homo sapiens, MTT assay, SW48 cells
Protocol: as §1, §2

RAJI (Lymphoma) = experiment: MTT in vitro cytotoxicity, 72 hour incubation; assay type: cell-based; conditions: Homo sapiens, MTT assay, RAJI cells
Protocol: as §1, §2

Jurkat (Leukaemia) = experiment: MTT in vitro cytotoxicity, 72 hour incubation; assay type: cell-based; conditions: Homo sapiens, MTT assay, Jurkat cells
Protocol: as §1, §2

JVM2 (Lymphoma) = experiment: MTT in vitro cytotoxicity, 72 hour incubation; assay type: cell-based; conditions: Homo sapiens, JVM-2, MTT assay, JVM2 cells
Protocol: as §1, §2

[1] = Hydrophobicity investigation of free payloads by UPLC (hydrophobicity model); assay type: physicochemical; conditions: single runs 1-3 (triplicate), 0.1% TFA water/acetonitrile gradient
Protocol: Both mobile phases were filtered through 0.22 μm filters and degassed by sonication under argon. Caffeine (Merck, UPLC grade) was employed a standard. Blank solvent samples (i.e., DMSO) were used during sample runs to confirm lack of carryover between injections and to monitor column performance.
UPLC-MS analysis was performed on a Waters Acquity H-Class Ultra-Performance Liquid Chromatography (UPLC) System equipped with an Acquity UPLC BEH, […] 50×2.10 mm (Waters, UK) column and a photodiode array detector […], using Waters MassLynx software. The gradient system used for LC analysis consisted of 0.1% trifluoroacetic acid (TFA) in water as Solvent A, and 0.1% trifluoroacetic acid (TFA) in acetonitrile as Solvent B. TFA was purchased from Merck (UK), and diluted to the required concentration with UPLC grade water and acetonitrile for Solvent A and Solvent B, respectively. TFA was added to ensure acidic conditions throughout the analysis. A flow rate of 0.4 mL/min was used, and the detection wavelength was 254 nm. Mass spectrometry data were collected using a Waters SQ Detector 2 coupled to a Waters Acquity H Class UPLC and a Photo Diode Array Detector (ACQ-PDA). The Waters SQ Detector 2 parameters were set to: Capillary (kV), 3.00; Cone (V), 30; De-solvation Temperature (° C.), 600; Cone flow rate (L/h), 50; De-solvation flow rate (L/h), 600.
Gradient method used: from 95% A/5% B to 20% B over 5 min. Then from 20% B to 60% B over 35 min, followed by from 60% B to 85% B over 10 min. It was further changed from 85% B to 90% B over 5 min and kept for a further 5 min. Finally, from 90% B to 95% B over 2.5 min, and then to 20% B over 2.5 min. 10 μL was split via a zero-dead volume T-piece which passed into the mass spectrometer.
Compounds were provided in powder form and were dissolved in DMSO to achieve 5 mM stock solution. This solution was then diluted to 500 μM with 50% acetonitrile/50% water.
A number of commercially available ADC payloads and internal reference compounds were also incorporated into the analysis, and their structures are presented in Table 3.

SMILES	IC50 (LIM1215 (Gastric)) [nM]	IC50 (SW620 (Gastric)) [nM]	IC50 (SW48 (Gastric)) [nM]	IC50 (RAJI (Lymphoma)) [nM]	IC50 (Jurkat (Leukaemia)) [nM]	IC50 (JVM2 (Lymphoma)) [nM]	Retention Time (min) seco form [1]	Retention Time (min) spiro form [1]
CNS(=O)(=O)c1ccc(C2=CCN3C(=O)c4cc(OC)c(OCc5cccc(CC(=O)N6C[C@@H](CCl)c7c6cc(O)c6ccccc76)c5)cc4N=C[C@@H]3C2)cc1 [Compound 31, 4-((S)-3-((3-(2-((S)-1-(Chloromethyl)-5-hydroxy-1,2-dihydro-3H-benzo[e]indol-3-yl)-2-oxoethyl)benzyl)oxy)-2-methoxy-12-oxo-6a,7,10,12-tetrahydrobenzo[e]pyrido[1,2-a][1,4]diazepin-8-yl)-N-methylbenzenesulfonamide]	2.7	0.35	1.3	–	–	–	–	–
CNS(=O)(=O)c1ccc(C2=CCN3C(=O)c4cc(OC)c(OCc5cccc(CC(=O)N6C[C@@H](CCl)c7c6cc(O)c6ccccc76)n5)cc4N=C[C@@H]3C2)cc1 [Compound 35, 4-((S)-3-((6-(2-((S)-1-(Chloromethyl)-5-hydroxy-1,2-dihydro-3H-benzo[e]indol-3-yl)-2-oxoethyl)pyridin-2-yl)methoxy)-2-methoxy-12-oxo-6a,7,10,12-tetrahydrobenzo[e]pyrido[1,2-a][1,4]diazepin-8-yl)-N-methylbenzenesulfonamide]	4.38	2.12	3.15	–	–	–	–	–
CNS(=O)(=O)c1ccc(C2=CCN3C(=O)c4cc(OC)c(OCCCCCC(=O)N5C[C@@H](CCl)c6c5cc(O)c5ccccc65)cc4N=C[C@@H]3C2)cc1 [Compound 72, 4-((S)-3-((6-((S)-1-(Chloromethyl)-5-hydroxy-1,2-dihydro-3H-benzo[e]indol-3-yl)-6-oxohexyl)oxy)-2-methoxy-12-oxo-6a,7,10,12-tetrahydrobenzo[e]pyrido[1,2-a][1,4]diazepin-8-yl)-N-methylbenzenesulfonamide]	0.32	0.21	0.29	0.0019	0.0015	0.0016	24.02 min and 24.04 min	17.11 min and 17.15 min
CNS(=O)(=O)c1ccc(C2=CCN3C(=O)c4cc(OC)c(OCCOCCC(=O)N5C[C@@H](CCl)c6c5cc(O)c5ccccc65)cc4N=C[C@@H]3C2)cc1 [Compound 76, 4-((S)-3-(2-(3-((S)-1-(Chloromethyl)-5-hydroxy-1,2-dihydro-3H-benzo[e]indol-3-yl)-3-oxopropoxy)ethoxy)-2-methoxy-12-oxo-6a,7,10,12-tetrahydrobenzo[e]pyrido[1,2-a][1,4]diazepin-8-yl)-N-methylbenzenesulfonamide]	–	–	–	0.0172	0.0095	0.0138	20.14 min	13.29 min and 13.28 min
CNS(=O)(=O)c1ccc(C2=CCN3C(=O)c4cc(OC)c(OC[C@@H](O)CC(=O)N5C[C@@H](CCl)c6c5cc(O)c5ccccc65)cc4N=C[C@@H]3C2)cc1 [Compound 88, 4-((S)-3-((S)-4-((S)-1-(Chloromethyl)-5-hydroxy-1,2-dihydro-3H-benzo[e]indol-3-yl)-2-hydroxy-4-oxobutoxy)-2-methoxy-12-oxo-6a,7,10,12-tetrahydrobenzo[e]pyrido[1,2-a][1,4]diazepin-8-yl)-N-methylbenzenesulfonamide]	–	–	–	0.954	0.97	0.49	18.73 min and 18.70 min	12.47 min and 12.45 min
CNS(=O)(=O)c1ccc(C2=CCN3C(=O)c4cc(OC)c(OC[C@H](O)CC(=O)N5C[C@@H](CCl)c6c5cc(O)c5ccccc65)cc4N=C[C@@H]3C2)cc1 [Compound 92, 4-((S)-3-((R)-4-((S)-1-(Chloromethyl)-5-hydroxy-1,2-dihydro-3H-benzo[e]indol-3-yl)-2-hydroxy-4-oxobutoxy)-2-methoxy-12-oxo-6a,7,10,12-tetrahydrobenzo[e]pyrido[1,2-a][1,4]diazepin-8-yl)-N-methylbenzenesulfonamide]	–	–	–	0.41	0.55	0.12	18.82 min and 18.84 min	12.16 min and 12.18 min
COc1cc2c(cc1OCCCCCC(=O)N1C[C@@H](CCl)c3c1cc(O)c1ccccc31)N=C[C@@H]1CC(c3ccsc3)=CCN1C2=O [Compound 96, (S)-3-((6-((S)-1-(Chloromethyl)-5-hydroxy-1,2-dihydro-3H-benzo[e]indol-3-yl)-6-oxohexyl)oxy)-2-methoxy-8-(thiophen-3-yl)-7,10-dihydrobenzo[e]pyrido[1,2-a][1,4]diazepin-12(6aH)-one]	–	–	–	0.0014	–	–	28.04 min and 28.08 min and 28.06 min	21.00 min and 21.02 min
COc1cc2c(cc1OCCCC(=O)N1C[C@@H](CCl)c3c1cc(O)c1ccccc31)N=C[C@@H]1CC(c3ccsc3)=CCN1C2=O [Compound 100, (S)-3-(4-((S)-1-(Chloromethyl)-5-hydroxy-1,2-dihydro-3H-benzo[e]indol-3-yl)-4-oxobutoxy)-2-methoxy-8-(thiophen-3-yl)-7,10-dihydrobenzo[e]pyrido[1,2-a][1,4]diazepin-12(6aH)-one]	–	–	–	–	–	0.001	25.24 min and 25.23 min	17.94 min and 17.89 min and 17.93 min
COc1cc2c(cc1OCCOCCC(=O)N1C[C@@H](CCl)c3c1cc(O)c1ccccc31)N=C[C@@H]1CC(c3ccsc3)=CCN1C2=O [Compound 104, (S)-3-(2-(3-((S)-1-(Chloromethyl)-5-hydroxy-1,2-dihydro-3H-benzo[e]indol-3-yl)-3-oxopropoxy)ethoxy)-2-methoxy-8-(thiophen-3-yl)-7,10-dihydrobenzo[e]pyrido[1,2-a][1,4]diazepin-12(6aH)-one]	–	–	–	0.0025	0.0095	0.0018	24.10 min and 24.09 min	16.90 min and 16.93 min and 16.91 min
COc1cc2c(cc1OC[C@@H](O)CC(=O)N1C[C@@H](CCl)c3c1cc(O)c1ccccc31)N=C[C@@H]1CC(c3ccsc3)=CCN1C2=O [Compound 108, (S)-3-((S)-4-((S)-1-(Chloromethyl)-5-hydroxy-1,2-dihydro-3H-benzo[e]indol-3-yl)-2-hydroxy-4-oxobutoxy)-2-methoxy-8-(thiophen-3-yl)-7,10-dihydrobenzo[e]pyrido[1,2-a][1,4]diazepin-12(6aH)-one]	–	–	–	0.01	0.014	0.0047	22.54 min and 22.53 min	15.71 min and 15.69 min and 15.70 min
